The record followed here is article PMC11727579, “Thermal proteome profiling unveils protein targets of deoxycholic acid in living neuronal cells” (Advanced Biotechnology, 2023).

One assay concerns the target T1, Casein kinase 1 epsilon (Homo sapiens, UniProt P49674).
T1 construct: gene CSNK1E
Description: thermal proteome profiling (iTRAQ LC-MS/MS), isothermal dose-response stabilization at […] °C, SH-SY5Y cells. The format is biochemical.

The target in the next assay is T2, Nicastrin (Homo sapiens, UniProt Q92542).
T2 construct: gene NCSTN
T2 sequence (Q92542 34-709): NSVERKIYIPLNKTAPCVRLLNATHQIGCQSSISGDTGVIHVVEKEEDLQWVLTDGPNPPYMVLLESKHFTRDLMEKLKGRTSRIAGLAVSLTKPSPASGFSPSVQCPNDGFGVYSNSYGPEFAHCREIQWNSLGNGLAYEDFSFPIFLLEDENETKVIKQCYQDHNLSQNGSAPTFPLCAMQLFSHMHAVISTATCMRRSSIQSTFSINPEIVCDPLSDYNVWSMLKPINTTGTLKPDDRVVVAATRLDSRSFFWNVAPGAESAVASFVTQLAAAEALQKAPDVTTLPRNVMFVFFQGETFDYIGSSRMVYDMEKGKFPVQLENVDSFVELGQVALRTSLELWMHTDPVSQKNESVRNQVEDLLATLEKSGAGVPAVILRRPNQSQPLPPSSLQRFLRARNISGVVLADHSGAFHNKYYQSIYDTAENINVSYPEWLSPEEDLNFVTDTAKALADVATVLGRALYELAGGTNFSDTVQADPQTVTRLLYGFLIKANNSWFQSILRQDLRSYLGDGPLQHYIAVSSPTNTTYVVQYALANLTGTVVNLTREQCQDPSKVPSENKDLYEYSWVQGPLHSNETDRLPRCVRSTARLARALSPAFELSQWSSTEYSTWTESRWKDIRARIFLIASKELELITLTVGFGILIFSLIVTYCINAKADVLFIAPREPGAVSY
The assay is described as above. Type of assay: biochemical.

T1 sequence (P49674 whole entry): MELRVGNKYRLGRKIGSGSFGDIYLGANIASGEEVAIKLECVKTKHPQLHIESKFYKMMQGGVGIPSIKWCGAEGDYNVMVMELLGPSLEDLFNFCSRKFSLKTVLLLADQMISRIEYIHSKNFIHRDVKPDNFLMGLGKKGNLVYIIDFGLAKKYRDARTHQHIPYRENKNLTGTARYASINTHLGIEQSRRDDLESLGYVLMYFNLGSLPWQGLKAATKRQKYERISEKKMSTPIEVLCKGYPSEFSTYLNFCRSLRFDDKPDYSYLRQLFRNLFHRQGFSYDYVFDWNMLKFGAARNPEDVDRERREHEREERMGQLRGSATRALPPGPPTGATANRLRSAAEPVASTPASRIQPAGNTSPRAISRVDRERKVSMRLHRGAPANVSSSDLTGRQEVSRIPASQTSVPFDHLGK

On to `C[C@H](CCC(=O)O)[C@H]1CC[C@H]2[C@@H]3CC[C@@H]4C[C@H](O)CC[C@]4(C)[C@H]3C[C@H](O)[C@]12C` [deoxycholic acid], for which the EC50 (in general, the concentration that produces a half-maximal response) at Casein kinase 1 epsilon turned out to be 7.22 µM; on Nicastrin it was 6.03 µM.
